Several values for one entry are separate records, joined by “and”; a condition that tells them apart may be missing. Equal entries are not always repeated. Toxic doses and inconclusive results are not listed. Cut-off read from the data, not from the text of the source: active = T/C of 150% or more; inactive = T/C below 125%.
Tested on: L1210 leukemia ip in BDF1 mice, survival T/C
Assay: NCI In Vivo Anticancer Drug Screen. Data for tumor model L1210 Leukemia (intraperitoneal) in B6D2F1 (BDF1) mice
Conditions: endpoint: mean survival time, higher = longer survival
Method in brief: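 Mice bearing the transplanted tumor received compound or vehicle. Survival of the treated group was divided by that of the vehicle-treated control group to give the ratio.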

[1] = dose: 6.0 mg/kg/injection, schedule: Q01DX009 (ip), vehicle: saline
[2] = dose: 100.0 mg/kg/injection, schedule: Q01DX009 (ip), vehicle: saline with Tween-80
[3] = dose: 100.0 mg/kg/injection, schedule: Q04DX003 (ip), vehicle: saline with Tween-80
[4] = dose: 200.0 mg/kg/injection, schedule: Q01DX009 (ip), vehicle: saline with Tween-80
[5] = dose: 200.0 mg/kg/injection, schedule: Q04DX003 (ip), vehicle: saline with Tween-80
[6] = dose: 400.0 mg/kg/injection, schedule: Q01DX009 (ip), vehicle: saline with Tween-80
[7] = dose: 400.0 mg/kg/injection, schedule: Q04DX003 (ip), vehicle: saline with Tween-80
[8] = dose: 25.0 mg/kg/injection, schedule: Q01DX009 (ip), vehicle: saline
[9] = dose: 50.0 mg/kg/injection, schedule: Q01DX009 (ip), vehicle: saline
[10] = dose: 100.0 mg/kg/injection, schedule: Q01DX009 (ip), vehicle: saline
[11] = dose: 100.0 mg/kg/injection, schedule: Q04DX003 (ip), vehicle: saline

Measured: T/C

COC(=O)C1C2CC3C(OC(=O)C31)C2Br (stereo not given)
inactive: dose: 100.0 mg/kg/injection, schedule: Q01DX001 (ip), vehicle: Klucel (hydroxypropylcellulose) (HPC) 98 % of control | dose: 100.0 mg/kg/injection, schedule: Q01DX009 (ip), vehicle: Klucel (hydroxypropylcellulose) (HPC) 102 % of control | dose: 100.0 mg/kg/injection, schedule: Q04DX003 (ip), vehicle: Klucel (hydroxypropylcellulose) (HPC) 104 % of control | dose: 200.0 mg/kg/injection, schedule: Q01DX001 (ip), vehicle: Klucel (hydroxypropylcellulose) (HPC) 103 % of control | dose: 200.0 mg/kg/injection, schedule: Q01DX009 (ip), vehicle: Klucel (hydroxypropylcellulose) (HPC) 93 % of control | dose: 200.0 mg/kg/injection, schedule: Q04DX003 (ip), vehicle: Klucel (hydroxypropylcellulose) (HPC) 105 % of control | dose: 400.0 mg/kg/injection, schedule: Q01DX001 (ip), vehicle: Klucel (hydroxypropylcellulose) (HPC) 109 % of control | dose: 400.0 mg/kg/injection, schedule: Q01DX009 (ip), vehicle: Klucel (hydroxypropylcellulose) (HPC) 94 % of control | dose: 400.0 mg/kg/injection, schedule: Q04DX003 (ip), vehicle: Klucel (hydroxypropylcellulose) (HPC) 107 % of control

CCN(CC)CCNc1ccccc1[N+](=O)[O-]
inactive: dose: 75.0 mg/kg/injection, schedule: Q01DX001 (ip), vehicle: acid diluted with saline 100 % of control | dose: 75.0 mg/kg/injection, schedule: Q04DX003 (ip), vehicle: acid diluted with saline 103 % of control | dose: 150.0 mg/kg/injection, schedule: Q01DX001 (ip), vehicle: acid diluted with saline 102 % of control | dose: 150.0 mg/kg/injection, schedule: Q04DX003 (ip), vehicle: acid diluted with saline 95 % of control | dose: 300.0 mg/kg/injection, schedule: Q01DX001 (ip), vehicle: acid diluted with saline 110 % of control

Cc1cc(C[P+](c2ccccc2)(c2ccccc2)c2ccccc2)c(C[P+](c2ccccc2)(c2ccccc2)c2ccccc2)cc1C
inactive: dose: 1.5 mg/kg/injection, schedule: Q04DX003 (ip), vehicle: saline 104 % of control | dose: 3.0 mg/kg/injection, schedule: Q01DX009 (ip), vehicle: saline 97 % of control | dose: 3.0 mg/kg/injection, schedule: Q04DX003 (ip), vehicle: saline 106 % of control | [1] 94 % of control | dose: 6.0 mg/kg/injection, schedule: Q04DX003 (ip), vehicle: saline 98 % of control

CCOC(=O)C(=O)c1ccccc1
inactive: [2] 100 % of control | [3] 96 % of control | [4] 103 % of control | [5] 103 % of control | [6] 97 % of control | [7] 103 % of control

CN(C)CCC(CCC(=O)O)(C(=O)O)c1ccccc1 (stereo not given)
inactive: dose: 75.0 mg/kg/injection, schedule: Q01DX001 (ip), vehicle: saline 98 % of control | dose: 150.0 mg/kg/injection, schedule: Q01DX001 (ip), vehicle: saline 96 % of control | dose: 300.0 mg/kg/injection, schedule: Q01DX001 (ip), vehicle: saline 90 % of control

NCCc1cnc2ccccc2n1
inactive: [8] 95 % of control | [9] 97 % of control | [10] 96 % of control | [11] 98 % of control

NC1CC[N-]CC1.NC1CC[N-]CC1.[Cl][Pt+2]([Cl])([Cl])[Cl]
inactive: dose: 12.5 mg/kg/injection, schedule: Q01DX009 (ip), vehicle: saline 101 % of control | [8] 101 % of control | [9] 95 % of control | dose: 50.0 mg/kg/injection, schedule: Q04DX003 (ip), vehicle: saline 106 % of control | [10] 101 % of control | [11] 104 % of control

CCOC(=O)c1ccc(NC(=O)Nc2ccccc2Cl)cc1
inactive: [2] 93 % of control | [3] 91 % of control | [4] 87 % of control | [5] 93 % of control | [6] 92 % of control | [7] 94 % of control

COS(=O)(=O)CCC[N+](C)(C)C
inactive: dose: 50.0 mg/kg/injection, schedule: Q01DX001 (ip), vehicle: saline 93 % of control

[CH3][Sb]([CH3])([CH3])([O]C(=O)CF)[O]C(=O)CF
inactive: dose: 1.25 mg/kg/injection, schedule: Q04DX003 (ip), vehicle: saline with Tween-80 91 % of control | dose: 2.5 mg/kg/injection, schedule: Q04DX003 (ip), vehicle: saline with Tween-80 96 % of control | dose: 5.0 mg/kg/injection, schedule: Q04DX003 (ip), vehicle: saline with Tween-80 110 % of control | dose: 5.0 mg/kg/injection, schedule: Q04DX003 (ip), vehicle: saline 107 % of control

[Ni+2].[SH2+]C([SH2+])=Nc1ccccc1.[SH2+]C([SH2+])=Nc1ccccc1.c1ccc(C[P+](c2ccccc2)(c2ccccc2)c2ccccc2)cc1
inactive: [1] 94 % of control

Cc1ccnc(NC(C#N)c2ccccc2)c1 (stereo not given)
inactive: dose: 12.5 mg/kg/injection, schedule: Q01DX009 (ip), vehicle: saline with Tween-80 93 % of control | dose: 25.0 mg/kg/injection, schedule: Q01DX009 (ip), vehicle: saline with Tween-80 97 % of control | dose: 50.0 mg/kg/injection, schedule: Q01DX009 (ip), vehicle: saline with Tween-80 93 % of control and 100 % of control

CCC1(Cl)C(=O)OCc2c1cc1n(c2=O)Cc2cc3ccccc3nc2-1 (stereo not given)
inactive: dose: 1.0 mg/kg/injection, schedule: Q01DX001 (ip), vehicle: saline 97 % of control | dose: 1.0 mg/kg/injection, schedule: Q01DX Z (ip), vehicle: saline 100 % of control | dose: 2.0 mg/kg/injection, schedule: Q01DX001 (ip), vehicle: saline 101 % of control | dose: 2.0 mg/kg/injection, schedule: Q01DX Z (ip), vehicle: saline 95 % of control | dose: 4.0 mg/kg/injection, schedule: Q01DX001 (ip), vehicle: saline 100 % of control | dose: 4.0 mg/kg/injection, schedule: Q01DX Z (ip), vehicle: saline 97 % of control | dose: 6.0 mg/kg/injection, schedule: Q01DX001 (ip), vehicle: saline 95 % of control | dose: 6.0 mg/kg/injection, schedule: Q01DX Z (ip), vehicle: saline 103 % of control

Nc1ccncn1
inactive: dose: 100.0 mg/kg/injection, schedule: Q01DX005 (ip), vehicle: saline 94 % of control | [10] 99 % of control | dose: 100.0 mg/kg/injection, schedule: Q04DX002 (ip), vehicle: saline 96 % of control | dose: 200.0 mg/kg/injection, schedule: Q01DX005 (ip), vehicle: saline 97 % of control | dose: 200.0 mg/kg/injection, schedule: Q01DX009 (ip), vehicle: saline 96 % of control | dose: 200.0 mg/kg/injection, schedule: Q04DX002 (ip), vehicle: saline 96 % of control | dose: 400.0 mg/kg/injection, schedule: Q01DX005 (ip), vehicle: saline 105 % of control | dose: 400.0 mg/kg/injection, schedule: Q01DX009 (ip), vehicle: saline 96 % of control | dose: 400.0 mg/kg/injection, schedule: Q04DX002 (ip), vehicle: saline 100 % of control

Oc1ccccc1C=Nc1ccc(Cc2ccc(N=Cc3ccccc3O)cc2)cc1
inactive: dose: 100.0 mg/kg/injection, schedule: Q01DX001 (ip), vehicle: saline 96 % of control | dose: 150.0 mg/kg/injection, schedule: Q04DX003 (ip), vehicle: other 104 % of control | dose: 200.0 mg/kg/injection, schedule: Q01DX001 (ip), vehicle: saline 90 % of control | dose: 300.0 mg/kg/injection, schedule: Q04DX003 (ip), vehicle: other 86 % of control | dose: 400.0 mg/kg/injection, schedule: Q01DX001 (ip), vehicle: saline 90 % of control

Reference: PubChem BioAssay AID248 (DTP/NCI, 2004)
